Experimental data: publication PMC2635097 (Molecular pharmacology, 2008)
Several values for one entry are separate records, joined by “and”; a condition that tells them apart may be missing. Identical values can stand only once. Like-named read-outs stand apart in the source and are kept apart here. Values belong to the compound of their own block, whether it stands above or below them.

Key:
cloned KCa3.1 channels = conditions: cited from earlier work
KCa2.2 = conditions: cited from earlier work
hKCa2.3 = hKCa2.3 (Homo sapiens, UniProt Q9UGI6); experiment: Whole-cell patch-clamp of KCa2.3 currents; type: cell-based
hKCa3.1 = hKCa3.1 (Homo sapiens, UniProt O15554); experiment: Whole-cell patch-clamp of KCa3.1 currents; type: cell-based
hKCa2.1 = hKCa2.1 (Homo sapiens, UniProt Q92952); experiment: Whole-cell patch-clamp of KCa2.1 currents; type: cell-based
rKCa2.2 = rKCa2.2 (Rattus norvegicus, UniProt P70604); experiment: Whole-cell patch-clamp of KCa2.2 currents; type: cell-based
hKCa1.1 = hKCa1.1 (Homo sapiens, UniProt Q12791); experiment: Selectivity patch-clamp, KCa1.1 currents; type: cell-based; conditions: 1 μM free Ca2+
mKv1.1 = mKv1.1 (Mus musculus, UniProt P16388); experiment: Selectivity patch-clamp, Kv1.1 currents; type: cell-based
mKv3.1 = mKv3.1 (Mus musculus, UniProt P15388); experiment: Selectivity patch-clamp, Kv3.1 currents; type: cell-based; conditions: 10 μM
Rat Kv3.2 = Rat Kv3.2 (Rattus norvegicus, UniProt P22462); experiment: Selectivity patch-clamp, Kv3.2 currents; type: cell-based; conditions: 10 μM
rKv4.2 = target: T1, rKv4.2 (Rattus norvegicus, UniProt Q63881); experiment: Selectivity patch-clamp, Kv4.2 currents; type: cell-based
T1 sequence (Q63881 1-630): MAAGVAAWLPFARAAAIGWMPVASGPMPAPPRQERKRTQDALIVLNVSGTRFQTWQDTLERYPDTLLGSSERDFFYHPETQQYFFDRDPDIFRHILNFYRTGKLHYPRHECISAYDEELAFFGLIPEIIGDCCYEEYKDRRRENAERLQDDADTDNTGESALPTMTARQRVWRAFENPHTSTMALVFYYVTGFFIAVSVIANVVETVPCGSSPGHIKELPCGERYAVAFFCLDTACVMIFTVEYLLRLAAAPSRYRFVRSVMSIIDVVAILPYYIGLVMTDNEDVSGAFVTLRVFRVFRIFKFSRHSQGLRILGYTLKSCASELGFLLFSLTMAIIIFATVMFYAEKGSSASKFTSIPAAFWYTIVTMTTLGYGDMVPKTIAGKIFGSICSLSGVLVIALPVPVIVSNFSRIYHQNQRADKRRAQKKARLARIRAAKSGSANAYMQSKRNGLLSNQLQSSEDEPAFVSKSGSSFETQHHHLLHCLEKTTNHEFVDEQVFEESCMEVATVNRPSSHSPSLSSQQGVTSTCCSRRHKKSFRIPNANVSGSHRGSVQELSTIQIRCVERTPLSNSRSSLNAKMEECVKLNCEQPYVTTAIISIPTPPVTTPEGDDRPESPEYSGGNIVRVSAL

K2P2.1 (TREK-1) = target: T2, K2P2.1 (TREK-1) (Mus musculus, UniProt P97438); experiment: Selectivity patch-clamp, endothelial cell TREK-1 currents; type: cell-based
T2 sequence (P97438 1-426): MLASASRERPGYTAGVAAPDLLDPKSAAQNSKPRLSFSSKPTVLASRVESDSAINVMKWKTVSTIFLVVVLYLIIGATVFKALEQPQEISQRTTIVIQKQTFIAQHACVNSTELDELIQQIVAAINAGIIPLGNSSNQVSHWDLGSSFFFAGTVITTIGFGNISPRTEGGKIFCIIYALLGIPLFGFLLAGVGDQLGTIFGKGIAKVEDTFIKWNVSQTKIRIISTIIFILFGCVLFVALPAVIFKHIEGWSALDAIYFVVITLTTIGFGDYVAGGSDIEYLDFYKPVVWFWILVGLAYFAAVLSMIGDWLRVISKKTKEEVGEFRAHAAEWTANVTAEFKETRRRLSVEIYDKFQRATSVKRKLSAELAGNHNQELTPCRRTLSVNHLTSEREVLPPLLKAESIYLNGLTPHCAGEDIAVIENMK

Nav1.2 = Nav1.2 (Mus musculus, UniProt B1AWN6); experiment: Selectivity patch-clamp, Nav1.2 currents from N1E-115 cells; type: cell-based
hNav1.4 = hNav1.4 (Homo sapiens, UniProt P35499); experiment: Selectivity patch-clamp, Nav1.4 currents; type: cell-based
Rat Nav1.5 = Rat Nav1.5 (Rattus norvegicus, UniProt P15389); experiment: Selectivity patch-clamp, Nav1.5 currents; type: cell-based
logP = type: physicochemical
KCa2.3 = conditions: read-out: EC50 KCa2.3 currents; ref Hougaard et al., 2007; cited from earlier work
KCa2.1 = conditions: ref Hougaard et al., 2007; cited from earlier work
mKv1.3 = mKv1.3 (Mus musculus, UniProt P16390); experiment: Selectivity patch-clamp, Kv1.3 currents; type: cell-based
hKv1.5 = hKv1.5 (Homo sapiens, UniProt P22460); experiment: Selectivity patch-clamp, Kv1.5 currents; type: cell-based; conditions: 25 μM
Cav1.2 = Cav1.2 (Oryctolagus cuniculus, UniProt P15381); experiment: Selectivity patch-clamp, Cav1.2 currents; type: cell-based
[1] = target: glutamate site of NMDA receptors (Rattus norvegicus, UniProt Q00959); experiment: NMDA receptor radioligand binding assay
Jurkat E61 and MEL cells = experiment: Cytotoxicity assay; type: cell-based; conditions: concentrations up to 100 μM; 48 h
Pharmacokinetics in rats = type: in vivo; conditions: rat; for peak total plasma concentration: 2 h
[2] = Plasma protein binding by ultrafiltration; type: in vitro ADME, rat
murine carotid artery = experiment: Pressure myography, EDHF-type dilation of carotid artery; parameters: species or system mouse
wt and KCa3.1−/− mice = experiment: Telemetric blood pressure in normotensive mice; type: in vivo, mouse; conditions: for MAP over 24 h: mean ± SEM; for lowering of mean arterial pressure (MAP): over 24 h
[3] = test system: wt mice infused with Ang-II; experiment: Telemetric blood pressure in angiotensin-II-induced hypertension; type: in vivo, mouse; conditions: 30 mg/kg i.p.
mice [4] = experiment: Maximal electroshock; type: in vivo, mouse; conditions: 100 mg/kg i.p., 15 min, 30 min and 1 hour
mice [5] = type: in vivo, mouse; conditions: 100 mg/kg i.p., 15 min, 30 min and 1 hour
Kv11.1 (HERG) = Kv11.1 (HERG) (Homo sapiens, UniProt Q12809)
[6] = male, Sprague-Dawley, plasma, iv, 10 mg/kg

Chain of hKCa2.3 (Q9UGI6 whole entry): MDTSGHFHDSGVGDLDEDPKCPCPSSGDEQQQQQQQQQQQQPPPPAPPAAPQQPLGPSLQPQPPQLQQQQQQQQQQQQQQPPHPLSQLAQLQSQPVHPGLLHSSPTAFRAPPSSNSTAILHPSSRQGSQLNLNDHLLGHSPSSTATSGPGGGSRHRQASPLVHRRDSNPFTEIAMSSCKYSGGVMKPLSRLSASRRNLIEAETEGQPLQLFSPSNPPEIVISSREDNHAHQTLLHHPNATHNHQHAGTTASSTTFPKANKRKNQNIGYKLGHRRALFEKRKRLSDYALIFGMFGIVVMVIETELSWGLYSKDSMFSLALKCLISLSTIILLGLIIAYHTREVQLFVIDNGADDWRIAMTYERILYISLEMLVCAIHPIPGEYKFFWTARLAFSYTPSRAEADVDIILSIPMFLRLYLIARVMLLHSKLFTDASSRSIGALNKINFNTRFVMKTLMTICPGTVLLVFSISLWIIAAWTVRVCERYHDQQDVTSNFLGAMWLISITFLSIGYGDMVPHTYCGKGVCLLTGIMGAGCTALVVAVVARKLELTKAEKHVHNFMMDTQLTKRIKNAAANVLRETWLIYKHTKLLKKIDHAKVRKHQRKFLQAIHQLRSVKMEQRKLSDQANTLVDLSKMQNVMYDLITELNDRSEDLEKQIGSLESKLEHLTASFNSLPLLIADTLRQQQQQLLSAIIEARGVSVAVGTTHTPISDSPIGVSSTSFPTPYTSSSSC
Chain of hKCa1.1 (Q12791 whole entry): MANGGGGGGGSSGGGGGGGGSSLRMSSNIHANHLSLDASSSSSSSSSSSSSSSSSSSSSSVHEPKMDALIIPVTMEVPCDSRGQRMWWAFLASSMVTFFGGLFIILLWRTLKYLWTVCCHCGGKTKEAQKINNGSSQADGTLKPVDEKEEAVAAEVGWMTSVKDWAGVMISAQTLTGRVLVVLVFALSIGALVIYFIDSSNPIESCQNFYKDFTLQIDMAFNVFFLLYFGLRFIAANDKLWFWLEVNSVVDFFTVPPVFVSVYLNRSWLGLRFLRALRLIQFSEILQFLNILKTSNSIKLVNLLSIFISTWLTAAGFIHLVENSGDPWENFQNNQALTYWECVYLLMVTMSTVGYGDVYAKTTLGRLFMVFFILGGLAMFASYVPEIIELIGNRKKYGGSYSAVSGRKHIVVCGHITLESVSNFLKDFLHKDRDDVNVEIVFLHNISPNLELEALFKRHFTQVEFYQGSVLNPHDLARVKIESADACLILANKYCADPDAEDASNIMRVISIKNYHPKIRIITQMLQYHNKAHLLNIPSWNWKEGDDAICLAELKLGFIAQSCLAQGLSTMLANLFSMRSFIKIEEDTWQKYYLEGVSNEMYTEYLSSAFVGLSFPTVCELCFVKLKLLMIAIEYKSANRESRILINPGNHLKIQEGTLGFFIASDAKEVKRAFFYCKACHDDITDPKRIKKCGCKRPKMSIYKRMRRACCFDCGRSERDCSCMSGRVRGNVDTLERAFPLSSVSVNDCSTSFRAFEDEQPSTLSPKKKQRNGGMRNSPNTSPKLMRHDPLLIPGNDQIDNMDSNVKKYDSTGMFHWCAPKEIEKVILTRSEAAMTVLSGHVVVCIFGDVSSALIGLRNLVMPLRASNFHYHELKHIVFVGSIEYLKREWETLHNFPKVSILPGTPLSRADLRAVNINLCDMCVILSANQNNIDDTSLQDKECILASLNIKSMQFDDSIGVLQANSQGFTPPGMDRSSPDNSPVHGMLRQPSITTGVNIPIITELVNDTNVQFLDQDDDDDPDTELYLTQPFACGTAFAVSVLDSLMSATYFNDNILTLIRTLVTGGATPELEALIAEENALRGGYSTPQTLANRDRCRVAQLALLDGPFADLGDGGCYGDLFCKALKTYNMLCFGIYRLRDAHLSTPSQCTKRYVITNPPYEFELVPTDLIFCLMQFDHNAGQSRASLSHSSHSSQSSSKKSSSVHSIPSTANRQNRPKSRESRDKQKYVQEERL
Chain of hNav1.4 (P35499 whole entry): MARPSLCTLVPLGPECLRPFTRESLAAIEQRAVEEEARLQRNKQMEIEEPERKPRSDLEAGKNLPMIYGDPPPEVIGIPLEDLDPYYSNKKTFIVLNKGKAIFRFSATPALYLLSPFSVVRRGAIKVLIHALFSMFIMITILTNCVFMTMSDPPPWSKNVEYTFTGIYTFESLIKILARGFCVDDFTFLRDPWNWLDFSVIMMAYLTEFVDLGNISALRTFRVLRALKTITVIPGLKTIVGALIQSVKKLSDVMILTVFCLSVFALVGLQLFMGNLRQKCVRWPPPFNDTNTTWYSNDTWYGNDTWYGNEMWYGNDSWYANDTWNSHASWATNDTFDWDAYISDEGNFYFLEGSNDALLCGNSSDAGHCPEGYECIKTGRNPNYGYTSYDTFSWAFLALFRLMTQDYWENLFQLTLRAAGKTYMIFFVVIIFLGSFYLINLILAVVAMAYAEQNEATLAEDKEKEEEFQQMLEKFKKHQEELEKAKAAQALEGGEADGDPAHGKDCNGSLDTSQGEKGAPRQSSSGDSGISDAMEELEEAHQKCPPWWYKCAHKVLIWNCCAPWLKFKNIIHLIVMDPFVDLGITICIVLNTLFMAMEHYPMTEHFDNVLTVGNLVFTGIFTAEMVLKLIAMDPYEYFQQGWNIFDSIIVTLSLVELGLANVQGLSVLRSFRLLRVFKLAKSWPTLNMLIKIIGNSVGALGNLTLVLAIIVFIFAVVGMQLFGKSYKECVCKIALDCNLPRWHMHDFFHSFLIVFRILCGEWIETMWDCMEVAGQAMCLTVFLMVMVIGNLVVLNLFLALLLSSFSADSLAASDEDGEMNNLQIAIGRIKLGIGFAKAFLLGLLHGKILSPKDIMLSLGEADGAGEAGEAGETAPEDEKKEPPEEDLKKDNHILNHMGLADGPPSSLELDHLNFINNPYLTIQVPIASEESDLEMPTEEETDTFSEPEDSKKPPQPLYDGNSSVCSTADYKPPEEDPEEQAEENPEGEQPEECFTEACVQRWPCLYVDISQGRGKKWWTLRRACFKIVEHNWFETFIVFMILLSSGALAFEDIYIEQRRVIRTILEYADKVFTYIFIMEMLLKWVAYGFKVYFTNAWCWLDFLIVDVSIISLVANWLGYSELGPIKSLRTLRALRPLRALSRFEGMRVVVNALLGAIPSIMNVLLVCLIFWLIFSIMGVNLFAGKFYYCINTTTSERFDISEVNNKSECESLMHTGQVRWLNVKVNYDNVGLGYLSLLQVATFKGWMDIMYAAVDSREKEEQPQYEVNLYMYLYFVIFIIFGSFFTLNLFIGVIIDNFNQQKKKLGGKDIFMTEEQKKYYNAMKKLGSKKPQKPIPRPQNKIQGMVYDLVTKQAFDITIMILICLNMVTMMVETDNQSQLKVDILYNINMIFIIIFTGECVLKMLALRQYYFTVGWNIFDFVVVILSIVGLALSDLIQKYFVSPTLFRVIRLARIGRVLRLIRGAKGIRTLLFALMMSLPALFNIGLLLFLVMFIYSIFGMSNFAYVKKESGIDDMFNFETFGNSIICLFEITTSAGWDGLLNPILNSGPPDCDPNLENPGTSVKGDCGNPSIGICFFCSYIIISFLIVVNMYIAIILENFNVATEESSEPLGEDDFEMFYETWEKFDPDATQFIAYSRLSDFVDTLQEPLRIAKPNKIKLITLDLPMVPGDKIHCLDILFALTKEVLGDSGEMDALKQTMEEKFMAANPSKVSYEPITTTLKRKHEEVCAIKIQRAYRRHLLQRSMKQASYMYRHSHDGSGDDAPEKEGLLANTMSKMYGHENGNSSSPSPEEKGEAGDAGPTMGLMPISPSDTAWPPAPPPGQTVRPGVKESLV
Chain of mKv1.1 (P16388 whole entry): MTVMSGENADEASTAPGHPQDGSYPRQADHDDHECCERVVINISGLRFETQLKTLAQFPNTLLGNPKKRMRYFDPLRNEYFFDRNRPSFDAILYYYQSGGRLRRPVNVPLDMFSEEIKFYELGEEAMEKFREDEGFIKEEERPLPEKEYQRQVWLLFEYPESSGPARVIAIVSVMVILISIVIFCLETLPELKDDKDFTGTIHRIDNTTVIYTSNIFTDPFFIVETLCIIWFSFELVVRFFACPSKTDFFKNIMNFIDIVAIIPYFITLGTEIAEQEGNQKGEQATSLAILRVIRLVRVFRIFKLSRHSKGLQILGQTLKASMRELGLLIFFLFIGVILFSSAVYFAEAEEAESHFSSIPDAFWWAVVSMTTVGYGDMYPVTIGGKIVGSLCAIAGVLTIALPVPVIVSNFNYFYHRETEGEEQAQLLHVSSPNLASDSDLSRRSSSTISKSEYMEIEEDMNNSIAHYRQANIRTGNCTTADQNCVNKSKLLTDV
Chain of mKv1.3 (P16390 whole entry): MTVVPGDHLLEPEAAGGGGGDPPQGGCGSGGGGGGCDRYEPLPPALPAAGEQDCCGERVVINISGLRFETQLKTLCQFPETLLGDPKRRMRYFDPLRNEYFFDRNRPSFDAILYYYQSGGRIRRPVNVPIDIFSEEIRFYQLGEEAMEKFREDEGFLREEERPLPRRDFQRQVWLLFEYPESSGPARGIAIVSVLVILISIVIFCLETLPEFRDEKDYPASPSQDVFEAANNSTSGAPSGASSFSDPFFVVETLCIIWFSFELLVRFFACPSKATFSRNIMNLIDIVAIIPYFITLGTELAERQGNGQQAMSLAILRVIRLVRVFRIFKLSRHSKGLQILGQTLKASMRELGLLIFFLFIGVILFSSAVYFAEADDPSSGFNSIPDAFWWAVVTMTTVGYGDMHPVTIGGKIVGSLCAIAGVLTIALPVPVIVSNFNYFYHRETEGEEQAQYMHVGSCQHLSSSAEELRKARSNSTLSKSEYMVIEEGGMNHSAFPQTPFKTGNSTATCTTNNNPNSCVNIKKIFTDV

SMILES: CCn1c(=O)[nH]c2cc(Cl)c(Cl)cc21 [DCEBIO, 5,6-dichloro-EBIO]
EC50 (cloned KCa3.1 channels; read-out: EC50 KCa3.1, ref Singh et al., 2001): 750 nM
EC50 (KCa2.2; read-out: EC50 KCa2.2, ref Pedarzani et al., 2001): 27000 nM

EC50 (hKCa2.3; read-out: EC50 KCa2.3 activation, 250 nM [Ca2+]i): 1200 nM
EC50 (hKCa3.1): 115 nM
EC50 (hKCa2.1): 430 nM
EC50 (rKCa2.2): 1900 nM
effect on KCa1.1 current at 10 μM (hKCa1.1; 10 μM): No effect at 10 μM
Kv1.1 block at 10 μM (mKv1.1; 10 μM): 12 ± 3%block at 10 μM
Kv3.1 block at 10 μM (mKv3.1): 35 ± 3% block at 10 μM
Kv3.2 block at 10 μM (Rat Kv3.2): 12 ± 5% block at 10 μM
Kv4.2 block at 10 μM (rKv4.2; 10 μM): 10 ± 3% block at 10 μM
K2P2.1 (TREK-1) effect at 10 μM (K2P2.1 (TREK-1); 10 μM): No effect at 10 μM
IC50 (Nav1.2): 14000 ± 2000 nM
Nav1.4 block at 10 μM (hNav1.4; 10 μM): No effect at 10 μM
logP (logP): 3.1
SMILES: Nc1nc2ccc3cc4ccccc4cc3c2s1 [SKA-20, Anthra[2,1-d]thiazol-2-ylamine]
Nav1.5 block at 10 μM (Rat Nav1.5): 30 ± 5% block at 10 μM

SMILES: Cl.c1ccc2c(c1)CCC[C@H]2Nc1nc2ccccc2[nH]1 [NS8593, N-[(1R)-1,2,3,4-tetrahydro-1-naphthalenyl]-1H-benzimidazol-2-amine hydrochloride]
IC50 (hKCa2.3; read-out: IC50 inhibition of KCa2.3 currents, absence of SKA-31): 700 nM
shift of IC50 on KCa2.3 by SKA-31 (hKCa2.3; with versus without SKA-31): roughly 10 fold

SMILES: Cc1cc(NC2CCCCC2)nc(-n2nc(C)cc2C)n1 [CyPPA]
effect on KCa3.1 (cloned KCa3.1 channels; ref Hougaard et al., 2007): no effect
EC50 (KCa2.2; read-out: EC50 KCa2.2 currents, ref Hougaard et al., 2007): 14000 nM
EC50 (KCa2.3): 6000 nM
effect on KCa2.1 (KCa2.1): no effect

effect on KCa1.1 current at 25 μM (hKCa1.1; 25 μM): No effect at 25 μM
Kv1.1 block at 25 μM (mKv1.1; 25 μM): No effect at 25 μM
Kv1.3 block at 25 μM (mKv1.3): 20 ± 5% block at 25 μM
Kv1.5 block at 25 μM (hKv1.5): 20 ± 5% block at 25 μM
Kv4.2 block at 25 μM (rKv4.2; 25 μM): No effect at 25 μM
K2P2.1 (TREK-1) effect at 25 μM (K2P2.1 (TREK-1); 25 μM): No effect at 25 μM
Nav1.4 block at 25 μM (hNav1.4; 25 μM): 20 ± 5 % block at 25 μM
effect in NMDA receptor binding assay at 25 μM [1]: no effect
Tmax (Pharmacokinetics in rats; male, Sprague-Dawley, plasma, ip, 30 mg/kg): 2 h
concentration at 1 h (Pharmacokinetics in rats; [6]): 5000 nM
concentration at 24 h (Pharmacokinetics in rats; [6]): 2500 nM
concentration at 48 h (Pharmacokinetics in rats; [6]): 2000 nM
concentration at 80 h (Pharmacokinetics in rats; [6]): 2000 nM
peak total plasma concentration (Pharmacokinetics in rats; i.p. 10 mg/kg): 25 µM
plasma concentrations higher than tissue concentrations (Pharmacokinetics in rats; i.p. 10 mg/kg, 2 h (plasma peak)): 4–8 fold
peak total plasma concentration (Pharmacokinetics in rats; i.p. 30 mg/kg): 37 µM
total plasma concentration, peak at 3 min (Pharmacokinetics in rats; i.v. 10 mg/kg, 3 min): 30 µM
unbound (free) fraction ([2]; rat plasma spiked with 10 μM): 61 ± 1.7% and 61%
fraction unbound at 15 min, 10 μM ([2]; rat, plasma): 0.61
logP (logP): 2.2
SMILES: Nc1nc2c(ccc3ccccc32)s1 [SKA-31, naphtho[1,2-d]thiazol-2-ylamine]
Cav1.2 block at 25 μM (Cav1.2): No effect at 25 μM
cytotoxicity (Jurkat E61 and MEL cells): not cytotoxic
effect on carotid artery diameter in the absence of acetylcholine (murine carotid artery; 0.01 to 1 μM): did not dilate or contract
potentiation of residual KCa2.3-mediated EDHF-type response (murine carotid artery; carotid arteries of KCa3.1−/− mice, 0.1 to 1 μM): did not potentiate
increase in EDHF-type dilation at 1 μM (murine carotid artery; wt carotid artery, 100 nM acetylcholine, 1 μM): two- to three-fold increase in dilation
MAP over 24 h (wt and KCa3.1−/− mice; KCa3.1−/− mice, 10 mg/kg i.p.): 104.3 ± 1.5 mmHg
MAP over 24 h (wt and KCa3.1−/− mice; KCa3.1−/− mice, 30 mg/kg i.p.): 102.9 ± 0.6 mmHg
effect on mean arterial pressure (MAP) (wt and KCa3.1−/− mice; KCa3.1−/− mice, 10 and 30 mg/kg i.p.): no blood pressure lowering effects
effect on heart rate (wt and KCa3.1−/− mice; any of the groups): did not alter heart rate
effect on mean arterial pressure (MAP) (wt and KCa3.1−/− mice; normotensive wt mice, 1 mg/kg i.p.): ineffective
lowering of mean arterial pressure (MAP) (wt and KCa3.1−/− mice; normotensive wt mice, 10 mg/kg i.p.): 4 mmHg
lowering of mean arterial pressure (MAP) (wt and KCa3.1−/− mice; normotensive wt mice, 30 mg/kg i.p.): 6 mmHg
MAP over 24 h (wt and KCa3.1−/− mice; wt mice, 1 mg/kg i.p.): 99.0 ± 2.0 mmHg
MAP over 24 h (wt and KCa3.1−/− mice; wt mice, 10 mg/kg i.p.): 95.8 ± 1.3 mmHg
MAP over 24 h (wt and KCa3.1−/− mice; wt mice, 30 mg/kg i.p.): 94.1 ± 1.3 mmHg
MAP ([3]; Ang-II hypertensive wt mice, mean ± SEM): 120 ± 4 mmHg
lowering of mean arterial pressure (MAP) ([3]; angiotensin-II-induced hypertension, wt mice): 12 mmHg
protection from seizures, maximal electroshock (MES) model (mice [4]): effectively protect mice from seizures
protection from seizures, 6 Hz minimal electroshock model (mice [5]): effectively protect mice from seizures
Kv11.1 (HERG) block at 25 μM (Kv11.1 (HERG)): No effect at 25 μM
